Publication PMC6917776, “Discovery of a chemical probe for PRDM9” (Nature Communications, 2019)

Test system: H3K4me3 at known PRDM9 binding loci and control TSS loci
Test: ChIP-qPCR of H3K4me3 in PRDM9-transfected HEK293T cells
Assay type: cell-based, human
Settings: for dCq (IP-Input): H3K4me3 antibody, Replicate 1; for 2^-dCq (H3K4me3 ChIP-qPCR, IP relative to H3) / H3K4me3 ChIP-qPCR 2^-dCq (IP-Input): Replicate 2; for 2^-dCq (H3K4me3 ChIP-qPCR, IP relative to H3): Antibody H3K4me3; for H3K4me3 ChIP-qPCR 2^-dCq (IP-Input): chr2:40281930-40282015 Intragenic (SLC8A1-AS1), Figure 7 C, H3K4me3 antibody relative to H3
Experimental: ChIP-qPCR assays were then conducted on known PRDM9 binding loci[26]. Ectopic expression of PRDM9^WT increased trimethylation of H3K4 (H3K4me3) at previously described PRDM9-specific intragenic and intergenic regions[26] (Fig. 7; Supplementary Fig. 12). […] The observed increases in H3K4me3 levels at intragenic and intergenic regions are therefore due directly to PRDM9 PR domain-dependent methylation activity, rather than through recruitment of other H3K4 methyltransferases or other indirect mechanisms.
ChIP qPCR analyses of H3K4me3 methylation levels of known PRDM9-bound loci and control loci. […] Concentrations used (µM) are indicated below each plot. (a–d) represent reported loci of PRDM9 methylation; (e, f) are transcriptional start sites (TSSs) which are not known loci of PRDM9 methylation. Data are normalized to total H3 and are presented as the mean ± upper and lower limits from two replicates. Representative plots of two independent experiments are shown in this figure. The coordinates and the genomic features associated with the assayed loci are indicated above each plot. Left Tailed Student's t-tests were performed by comparing DMSO (0 µM) treated cells to compound treated cells that have been transfected with the same plasmids. *p-value < 0.05 and **p-value < 0.01. Note that here we show a representative of two independent experiments (mean ± s.d of technical replicates) for our ChIP-qPCR experiments. Data obtained using this technique are inherently noisy due to stochastic differences in gene activity/histone positioning. Data are thus typically presented as representative rather than averaged. Source data are provided as a Source Data file.
HEK293T cells were transfected with 37.5 μg empty pcDNA3.1(+) vector (Invitrogen), or the same vector expressing either wild-type PRDM9 (PRDM9^WT) or a catalytically dead PRDM9 mutant (PRDM9^Mut) and 75 μL of Lipofectamine 2000 (Invitrogen) in 6 mL of Opti-MEM (GIBCO) for 48 h. […] ChIP assays were then performed as previously described. Briefly, cells were fixed in 1% formaldehyde and the fixation reaction was quenched in a final concentration of 0.1 M glycine. Cell pellets were first lysed in LB1 (50 mM HEPES-KOH pH 7.5, 140 mM NaCl, 1 mM EDTA, 10% Glycerol, 0.5% Igepal, 0.25% TritonX), washed once in LB2 Buffer (10 mM Tris-HCl pH 8, 200 mM NaCl, 1 mM EDTA, 0.5 mM EGTA) and finally sonicated in LB3 buffer (10 mM Tris-HCl pH 8, 100 mM NaCl, 1 mM EDTA, 0.5 mM EGTA, 0.1% Sodium deoxycholate, 0.5% N-laurosylsarcosine) using a bioruptor (Diagenode). Thereafter, 50 μg of chromatin was subjected to ChIP using the following antibodies purchased from Abcam: α-H3K4me3 (1:200, ab8580, lot:GR3207339-1) and α-H3 (1:250, ab1791, lot:GR300978-4). After extensive washing in RIPA wash buffer (50 mM HEPES-KOH pH 7.6, 100 mM LiCl, 1 mM EDTA, 1% Igepal, 0.7% Sodium Deoxycholate), DNA was eluted from beads. The eluted DNA was treated with RNase A and Proteinase K and purified using the QIAGEN PCR purification kit. qPCR was then carried out targeting the indicated loci (Supplementary Table 3). Upper and lower limits were defined by |2^−(dCq±s) − 2^−(∆Cq)|, where s = √((Standard deviation of Input Cq)^2 + (Standard deviation of Target Cq)^2). […]
formation. ChIP qPCR analyses of H3K4me3 methylation levels at known PRDM9-bound and control loci. Cells transfected with empty vector (negative control) or vectors overexpressing either wild-type PRDM9 (PRDM9 WT) or catalytically dead PRDM9 (PRDM9 MUT) were […]
Panels a-d represent reported loci of […]
(1 picture or pasted object on this page, not shown here)
PRDM9 methylation; e-f are TSSs which are not known sites of PRDM9 methylation. Data are normalized to total H3 and are presented as the mean ± upper and lower limits from two […]

SMILES: COc1cc(OC)cc(-c2noc(N3CCN(C)C4(CCN(c5ccnc(C)c5)CC4)C3)n2)c1 [MRK-740]
- dCq (IP-Input) (chr8:49932778-49932856 (Intergenic), PRDM9): -2.203
- dCq (IP-Input) (chr8:49932778-49932856 (Intergenic), PRDM9_Cat.Dead): 1.033
- dCq (IP-Input) (chr12:6643945-6644023 TSS (GAPDH), Empty Vector): -5.504
- dCq (IP-Input) (chr12:6643945-6644023 TSS (GAPDH), PRDM9): -5.409
- dCq (IP-Input) (chr12:6643945-6644023 TSS (GAPDH), PRDM9_Cat.Dead): -6.466
- dCq (IP-Input) (chr19:8510167-8510261 TSS (HNRNPM), Empty Vector): -5.657
- dCq (IP-Input) (chr19:8510167-8510261 TSS (HNRNPM), PRDM9): -5.412
- dCq (IP-Input) (chr19:8510167-8510261 TSS (HNRNPM), PRDM9_Cat.Dead): -6.463
- H3K4me3 levels at tested TSS sites (ChIP-qPCR, in words) (HEK293T transfected with wild-type PRDM9, 48 h): No significant reduction in H3K4me3 levels
- H3K4me3 levels at PRDM9-dependent intragenic and intergenic loci (ChIP-qPCR, in words) (HEK293T transfected with wild-type PRDM9, 48 h, various concentrations): abrogated in a concentration-dependent manner in three out of four PRDM9-dependent loci
- 2^-dCq (H3K4me3 ChIP-qPCR, IP relative to H3) (Figure 7 D chr3:165514798-165514911 Intragenic (BCHE), Plasmid Empty Vector, Drug Conc. 2.5): 0.6821
- 2^-dCq (H3K4me3 ChIP-qPCR, IP relative to H3) (Figure 7 D chr3:165514798-165514911 Intragenic (BCHE), Plasmid Empty Vector, Drug Conc. 5): 0.9187
- 2^-dCq (H3K4me3 ChIP-qPCR, IP relative to H3) (Figure 7 D chr3:165514798-165514911 Intragenic (BCHE), Plasmid Empty Vector, Drug Conc. 10): 0.5228
- 2^-dCq (H3K4me3 ChIP-qPCR, IP relative to H3) (Figure 7 D chr3:165514798-165514911 Intragenic (BCHE), Plasmid PRDM9WT, Drug Conc. 2.5): 6.769
- 2^-dCq (H3K4me3 ChIP-qPCR, IP relative to H3) (Figure 7 D chr3:165514798-165514911 Intragenic (BCHE), Plasmid PRDM9WT, Drug Conc. 5): 7.878
- 2^-dCq (H3K4me3 ChIP-qPCR, IP relative to H3) (Figure 7 D chr3:165514798-165514911 Intragenic (BCHE), Plasmid PRDM9WT, Drug Conc. 10): 3.468
- 2^-dCq (H3K4me3 ChIP-qPCR, IP relative to H3) (Figure 7 E chr12:6643945-6644023 TSS (GAPDH), Plasmid Empty Vector, Drug Conc. 2.5): 49.5681
- 2^-dCq (H3K4me3 ChIP-qPCR, IP relative to H3) (Figure 7 E chr12:6643945-6644023 TSS (GAPDH), Plasmid Empty Vector, Drug Conc. 5): 83.0384
- 2^-dCq (H3K4me3 ChIP-qPCR, IP relative to H3) (Figure 7 E chr12:6643945-6644023 TSS (GAPDH), Plasmid Empty Vector, Drug Conc. 10): 114.864
- 2^-dCq (H3K4me3 ChIP-qPCR, IP relative to H3) (Figure 7 E chr12:6643945-6644023 TSS (GAPDH), Plasmid PRDM9WT, Drug Conc. 2.5): 64.1133
- 2^-dCq (H3K4me3 ChIP-qPCR, IP relative to H3) (Figure 7 E chr12:6643945-6644023 TSS (GAPDH), Plasmid PRDM9WT, Drug Conc. 5): 130.72
- 2^-dCq (H3K4me3 ChIP-qPCR, IP relative to H3) (Figure 7 E chr12:6643945-6644023 TSS (GAPDH), Plasmid PRDM9WT, Drug Conc. 10): 21.1787
- 2^-dCq (H3K4me3 ChIP-qPCR, IP relative to H3) (Figure 7 F chr19:8510167-8510261 TSS (HNRNPM), Plasmid Empty Vector, Drug Conc. 2.5): 123.77
- 2^-dCq (H3K4me3 ChIP-qPCR, IP relative to H3) (Figure 7 F chr19:8510167-8510261 TSS (HNRNPM), Plasmid Empty Vector, Drug Conc. 5): 107.435
- 2^-dCq (H3K4me3 ChIP-qPCR, IP relative to H3) (Figure 7 F chr19:8510167-8510261 TSS (HNRNPM), Plasmid Empty Vector, Drug Conc. 10): 99.1079
- 2^-dCq (H3K4me3 ChIP-qPCR, IP relative to H3) (Figure 7 F chr19:8510167-8510261 TSS (HNRNPM), Plasmid PRDM9WT, Drug Conc. 2.5): 68.6717
- 2^-dCq (H3K4me3 ChIP-qPCR, IP relative to H3) (Figure 7 F chr19:8510167-8510261 TSS (HNRNPM), Plasmid PRDM9WT, Drug Conc. 5): 143.684
- 2^-dCq (H3K4me3 ChIP-qPCR, IP relative to H3) (Figure 7 F chr19:8510167-8510261 TSS (HNRNPM), Plasmid PRDM9WT, Drug Conc. 10): 36.5414
- H3K4me3 ChIP-qPCR 2^-dCq (IP-Input) (Empty Vector, Drug Conc. 2.5): 0.6992
- H3K4me3 ChIP-qPCR 2^-dCq (IP-Input) (Empty Vector, Drug Conc. 5): 0.9795
- H3K4me3 ChIP-qPCR 2^-dCq (IP-Input) (Empty Vector, Drug Conc. 10): 0.6781
- H3K4me3 ChIP-qPCR 2^-dCq (IP-Input) (PRDM9WT, Drug Conc. 2.5): 6.293
- H3K4me3 ChIP-qPCR 2^-dCq (IP-Input) (PRDM9WT, Drug Conc. 5): 5.934
